Data as given in patent US8598342B2, “Methods and compounds for antimicrobial intervention” (President and Fellows of Harvard College, priority 2008, dated 2013).
“Also recorded” adds a separate entry of the source.

How the values were obtained:
S. aureus TarI = biological target: T1, S. aureus TarI (Staphylococcus aureus, UniProt Q2G1C0); assay: In vitro enzyme inhibition assay, TarI (HPLC); format: biochemical; conditions: targocil 50 μg/mL; enzyme 200 nM
T1 construct: made in house
T1 sequence (Q2G1C0 1-238): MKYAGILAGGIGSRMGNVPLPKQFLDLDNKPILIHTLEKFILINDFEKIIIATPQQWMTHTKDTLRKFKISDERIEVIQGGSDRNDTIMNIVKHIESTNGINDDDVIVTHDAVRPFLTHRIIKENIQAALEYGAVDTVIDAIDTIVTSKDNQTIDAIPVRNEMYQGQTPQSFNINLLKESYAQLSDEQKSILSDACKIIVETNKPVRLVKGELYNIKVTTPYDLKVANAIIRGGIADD
Procedure: S. aureus TarB, D, F, I, and L were cloned, overexpressed and purified as described previously (S. Brown, Y. H. Zhang, S. Walker, Chemistry & Biology 15, 12, Jan. 2008.) Radiometric in vitro assays were run to test the inhibitory effects of targocil on Tar B, D, F, and L, while TarI was assayed for targocil inhibition using an HPLC assay using conditions similar to those previously reported (ibid). See below for exact reaction conditions. […] In each case, a reaction with no targocil served as a negative control (active enzymatic reaction) and a reaction with heat-treated enzyme served as a positive control (no enzymatic reaction). Targocil was incubated with all reaction components except the substrates at room temperature. After 10 minutes, substrates were added and the reactions were allowed to proceed for 60 minutes. The reactions were quenched with DMF and the products were imaged/monitored as previously described (ibid).
TarI in vitro inhibition assay protocol and data. […] The reactions were monitored by HPLC using an anion exchange column, Phenosphere 5μ SAX 250×4.6 mm, 5 μm (Phenomenex), to record the disappearance of the CTP peak and production of a new CDP ribitol peak (Buffer A: 5 mM NH4H2PO4, pH 2.8, Buffer B: 750 mM NH4H2PO4, pH 3.7, isocratic elution 75% B over 20 minutes, UV monitored at 271 nm).

[1] = system: S. aureus strain expressing B. subtilis 168 TagGH; assay: Growth of S. aureus RN4220 expressing B. subtilis 168 tagGH; format: cell-based, Staphylococcus aureus; conditions: 28° C., 12 h, OD600
Procedure: (A) Targocil MIC data for a panel of Gram-positive strains, including MRSA clinical isolates B5271 and 5340A. Growth was monitored in triplicate after 12 h at 28° C. using optical density. (B) Two dimensional drug interaction analysis between tunicamycin and targocil grown for 18 h at 30° C. […] At higher concentrations, tunicamycin is toxic because it inhibits cell wall biosynthesis. […] Varying concentrations of drug were added to […] of S. aureus RN4220 after 5 h and cell count was monitored over time at 30° C. […] Cells were grown at 28° C. for 12 h and monitored for growth using optical density (OD600). Data were normalized to the DMSO controls for each strain. (E) Two classes of mutants were examined: phage resistant (m1 3) and phage sensitive (m4-5).

[2] = system: S. aureus RN4220 invasion of human corneal epithelial cells (HCEC); assay: Human corneal epithelial cell (HCEC) invasion / internalization model; format: cell-based, Staphylococcus aureus; conditions: wildtype S. aureus grown with 8×MIC (20 μg/mL) of targocil
Procedure: An overnight culture of S. aureus RN4220 and its isogenic ΔtarO strain were grown with shaking at 37° C. in either 1% DMSO or in the presence of 8×MIC (20 μg/mL) of targocil 1% DMSO. Human corneal epithelial cells (HCEC) were cultured separately in 24-well plates. Prior to incubation with HCEC, the bacteria were washed twice with keratinocyte culture media—serum free (KBM-SFM) including 8×MIC of targocil in 1% DMSO or 1% DMSO. The S. aureus strains (approximately 10^8 CFU in 1 mL of KBM-SFM including either 8×MIC of targocil 1% DMSO or 1% DMSO) were then applied to the HCEC monolayers. (The initial inoculum of each group was determined by serial dilution and plate counting.) Following incubation at 37° C. for 1 h, bacteria were removed and the monolayers were washed twice with Hank's balanced salt solution (HBSS), and covered with 1 mL of KBM-SFM containing gentamycin (100 μg/mL) and incubated at 37° C. for 1 h to kill residual extracellular bacteria. The monolayers were washed twice with HBSS, lysed, and homogenized in 1 mL of lysis solution (0.25% trypsin-0.025% Triton X-100). Lysates were serially diluted and plated on brain-heart infusion agar, and colonies were enumerated following overnight incubation at 37° C.
The data workup was done by first determining the percentage of internalized bacteria compared to the initial inoculum. […]

CCN(CC)c1nc2c(S(=O)(=O)c3ccccc3)nnn2c2ccc(Cl)cc12 [7-chloro-N,N-diethyl-3-(phenylsulfonyl)-[1,2,3]triazolo[1,5-a]quinazolin-5-amine]
inhibition of TarI (S. aureus TarI): None of these enzymes was inhibited | resistance to targocil of strain expressing B. subtilis 168 TagGH [1]: fully resistant; also recorded: complete resistance | invasion of HCECs by targocil-treated bacteria [2]: behaved similarly to the ΔtarO strain
